Test results from the Kinase Knowledgebase extract (Sharma et al. 2016).

Target: PIK3CG (human) (UniProt P48736)
Assay: Assessment of PIK3CG Kinase Activity

PIK3CG (human), sequence (P48736 whole entry, looked up): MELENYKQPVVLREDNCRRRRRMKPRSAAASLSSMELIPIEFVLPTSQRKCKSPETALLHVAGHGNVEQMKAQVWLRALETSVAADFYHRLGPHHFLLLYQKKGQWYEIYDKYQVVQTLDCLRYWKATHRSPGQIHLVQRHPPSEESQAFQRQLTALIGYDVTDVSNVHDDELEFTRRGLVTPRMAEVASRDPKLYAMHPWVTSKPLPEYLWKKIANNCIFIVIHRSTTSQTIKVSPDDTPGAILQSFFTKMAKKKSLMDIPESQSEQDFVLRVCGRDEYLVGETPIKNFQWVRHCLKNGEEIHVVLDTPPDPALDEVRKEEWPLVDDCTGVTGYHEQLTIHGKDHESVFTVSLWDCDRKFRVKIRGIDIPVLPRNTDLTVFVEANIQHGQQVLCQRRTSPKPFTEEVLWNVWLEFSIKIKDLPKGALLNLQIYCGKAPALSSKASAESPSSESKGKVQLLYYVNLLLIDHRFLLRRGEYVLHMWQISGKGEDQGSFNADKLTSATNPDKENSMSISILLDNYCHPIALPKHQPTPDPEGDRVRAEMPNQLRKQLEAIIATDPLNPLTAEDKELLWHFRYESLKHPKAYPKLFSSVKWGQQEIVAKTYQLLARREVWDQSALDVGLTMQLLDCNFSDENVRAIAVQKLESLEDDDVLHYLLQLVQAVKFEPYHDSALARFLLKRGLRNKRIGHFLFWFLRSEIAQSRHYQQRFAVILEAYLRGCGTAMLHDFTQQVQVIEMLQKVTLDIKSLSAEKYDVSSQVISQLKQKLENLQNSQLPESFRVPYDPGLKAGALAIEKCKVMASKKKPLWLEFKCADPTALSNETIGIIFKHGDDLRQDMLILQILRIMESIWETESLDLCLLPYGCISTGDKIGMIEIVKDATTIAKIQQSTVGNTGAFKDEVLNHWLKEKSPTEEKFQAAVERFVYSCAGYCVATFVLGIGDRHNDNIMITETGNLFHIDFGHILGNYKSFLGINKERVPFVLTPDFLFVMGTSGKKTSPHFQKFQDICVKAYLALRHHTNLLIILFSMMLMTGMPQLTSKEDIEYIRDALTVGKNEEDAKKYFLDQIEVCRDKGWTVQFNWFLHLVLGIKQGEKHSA

IC50, < 0.8 µM:
CC(=O)Nc1nc2c(s1)-c1c(c([C@@H]3CCCO3)nn1-c1ccccc1Cl)CC2
CC(=O)Nc1nc2c(s1)-c1nc(N(C)CCCN(C)C)ncc1CC2
CC(=O)Nc1nc2c(s1)-c1c(cnn1-c1ccc3ncsc3c1)CC2
CC(C)(C)NC(=O)NCC#CCNC(=O)Nc1nc2c(s1)-c1c(cnn1-c1ccccc1)CC2
CC(=O)Nc1nc2c(s1)-c1c(cnn1-c1ccc(C(=O)NCc3ccnn3C)cc1)CC2
CN1CCN(C(=O)Nc2nc3c(s2)-c2nc(-c4ccccc4)ncc2CC3)CC1
CC(=O)Nc1nc2c(s1)-c1nc(NC3CCN(C)CC3)ncc1CC2
CC(=O)Nc1nc2c(s1)-c1c(cnn1-c1ccc(C(=O)N3CCC(NC(=O)Cc4ccccc4)CC3)cc1)CC2
CC(=O)Nc1nc2c(s1)-c1c(cnn1-c1ccccc1Br)C2
NC(=O)Nc1nc2c(s1)-c1c(cnn1-c1ccccc1)C2
O=C(Nc1nc2c(s1)-c1nc(-c3ccccc3)ncc1CC2)N1CCCC1
COCc1nn(-c2ccccc2)c2c1CCc1nc(NC(C)=O)sc1-2
CC(=O)Nc1nc2c(s1)-c1c(cnn1-c1ncccn1)CC2
CC(=O)Nc1nc2c(s1)-c1c(cnn1-c1ccc(C(=O)N[C@H](Cc3cc4ccccc4[nH]3)C(N)=O)cc1Cl)CC2
CC(=O)Nc1nc2c(s1)-c1c(cnn1-c1ccc(C(=O)N3CCC(C(N)=O)CC3)cc1)CC2
COCc1nn(-c2ccc(C(=O)NC3CCN(C)CC3)cc2Cl)c2c1CCc1nc(NC(C)=O)sc1-2
CC(=O)Nc1nc2c(s1)-c1nc(SCCCN(C)C)ncc1CC2
CC(=O)Nc1nc2c(s1)-c1c(cnn1-c1ccc3cn[nH]c3c1)CC2
CC=Cn1cc2c(n1)-c1sc(NC(C)=O)nc1CC2
COc1ccccc1-n1nc(-c2ccco2)c2c1-c1sc(NC(C)=O)nc1CC2
CC(=O)Nc1nc2c(s1)-c1c(cnn1-c1ccc(C(=O)N[C@@H](Cc3c[nH]cn3)C(N)=O)cc1Cl)CC2
CC(=O)Nc1nc2c(s1)-c1c(c(-c3ccco3)nn1-c1ccccc1C)CC2
CC(=O)Nc1nc2c(s1)-c1c(cnn1-c1ccc3nc[nH]c3c1)CC2
CC(=O)Nc1nc2c(s1)-c1c(cnn1-c1ccc(C(=O)N[C@@H]3CCOC3=O)cc1)CC2
O=C(NCCn1ccnc1)Nc1nc2c(s1)-c1c(cnn1-c1ccccc1Cl)C2
CC(=O)Nc1nc2c(s1)-c1c(cnn1-c1ccc(S(=O)(=O)N3CCCCC3)cc1)CC2
CNC(=O)c1ccc(-n2nc(-c3ccco3)c3c2-c2sc(NC(C)=O)nc2CC3)c(Cl)c1
CC(=O)Nc1nc2c(s1)-c1nc(-c3ccc(C(=O)N(C)C)cc3)ncc1CC2
COCc1nn(-c2ccc(C(=O)N(C)C3CCN(C)CC3)cc2Cl)c2c1CCc1nc(NC(C)=O)sc1-2
CC(=O)Nc1nc2c(s1)-c1c(cnn1-c1ccc(C(=O)NCc3nc4ccccc4[nH]3)cc1)CC2
CC(=O)Nc1nc2c(s1)-c1c(cnn1-c1ccc(CC(=O)NCC3OCCO3)cc1)CC2
CC(=O)Nc1nc2c(s1)-c1c(cnn1-c1ccc(CC(=O)N3CCC(O)CC3)cc1)CC2
CC(=O)Nc1nc2c(s1)-c1nc(-c3ccccc3)[nH]c(=O)c1CC2
CC(=O)Nc1nc2c(s1)-c1c(c(NC(=O)NC(C)C)nn1-c1ccccc1Cl)CC2
CC(=O)Nc1nc2c(s1)-c1nc(N3CCOCC3)ncc1CC2
CC(=O)Nc1nc2c(s1)-c1c(cnn1-c1ccc(C(=O)N[C@H]3CC[C@@H](N4CCOCC4)CC3)cc1)CC2
CC(=O)Nc1nc2c(s1)-c1nc(N3CCCCC3)ncc1CC2
CC(=O)Nc1nc2c(s1)-c1c(cnn1-c1ccc(C(=O)N[C@H]3CC[C@H](N(Cc4ccccc4)Cc4ccccc4)CC3)cc1)CC2
CC(=O)Nc1nc2c(s1)-c1c(cnn1-c1ccc(C(=O)NCc3ccc(C(N)=O)cc3)cc1)CC2
CC(=O)Nc1nc2c(s1)-c1c(cnn1-c1ccc(C(=O)NCCCCCCN)cc1)CC2
CC(=O)Nc1nc2c(s1)-c1c(cnn1-c1cccc([N+](=O)[O-])c1)CC2
CC(=O)Nc1nc2c(s1)-c1c(cnn1-c1ccc(C(=O)N(C)CC(=O)N3CCOCC3)cc1)CC2
CC(=O)Nc1nc2c(s1)-c1c(cnn1-c1ccc(C(=O)N3CCC(N4CCOCC4)CC3)cc1Cl)CC2
CC(=O)Nc1nc2c(s1)-c1c(cnn1-c1ccc(C(=O)N[C@H]3CC[C@H](N(C)C)CC3)cc1)CC2
CS(=O)(=O)c1cccc(Nc2nc3c(s2)-c2c(cnn2-c2ccccc2)CC3)c1
CC(=O)Nc1nc2c(s1)-c1c(c(C)nn1-c1ccc(Cl)cc1)CC2
CC(=O)Nc1ncc2c(n1)-c1sc(NC(C)=O)nc1CC2
CC(=O)Nc1nc2c(s1)-c1c(cnn1-c1ccc(C(=O)NC3CCN(C)CC3)cc1)CC2
C#CCNc1ncc2c(n1)-c1sc(NC(C)=O)nc1CC2
COc1ccccc1-c1ncc2c(n1)-c1sc(NC(N)=O)nc1CC2
COCc1nn(-c2ccccc2Cl)c2c1CCc1nc(NC(C)=O)sc1-2
CC(=O)Nc1nc2c(s1)-c1c(cnn1-c1ccc(CC(=O)NCc3cnn(C)c3)cc1)CC2
CCCCn1ncc2c1-c1sc(NC(C)=O)nc1CC2
Nc1nc2c(s1)-c1nc(-c3ccccc3)ncc1CC2
CC(=O)Nc1nc2c(s1)-c1c(cnn1C(C)C)CC2
CC(=O)Nc1nc2c(s1)-c1c(cnn1-c1ccc(C(=O)N3CCC(N4CCCCC4)CC3)cc1)CC2
COc1cc(OC)cc(-c2ncc3c(n2)-c2sc(NC(C)=O)nc2CC3)c1
CC(=O)Nc1nc2c(s1)-c1c(cnn1-c1ccc(CC(=O)NCc3cccc(C(N)=O)c3)cc1)CC2
CC(=O)Nc1nc2c(s1)-c1c(cnn1-c1ccc(OC(F)(F)F)cc1)CC2
CC(=O)Nc1nc2c(s1)-c1c(cnn1-c1ccc(CC(=O)N3CCc4cn[nH]c4C3)cc1)CC2
CC(=O)Nc1nc2c(s1)-c1c(c(-c3cn(C)cn3)nn1-c1ccccc1C)CC2
CC(=O)Nc1nc2c(s1)-c1nc(-c3c(Cl)cccc3Cl)ncc1CC2
CC(=O)Nc1nc2c(s1)-c1c(cnn1-c1ccc(F)cc1F)CC2
